According to patent US11685734B2, “ATM kinase inhibitors and compositions and methods of use thereof” (CHDI Foundation, Inc., priority 2019, dated 2023):

Assays:
[1] = biological target: Recombinant, full length human FLAG-tagged ATM (Homo sapiens (Human), UniProt Q13315); test: ATM ELISA for p53 S15 phosphorylation; type: biochemical; details: 0.75 nM ATM, 25 nM p53, 10 μM ATP, 30 min at 20° C.; read-out: ATM BIO IC50
In short: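 ELISA of p53 S15 phosphorylation by 0.75 nM full-length FLAG-ATM, with 25 nM myc-p53 and 10 μM ATP in HEPES pH 7.5 with Mg/Mn, 30 min at 20° C. Reactions were EDTA-stopped, captured on anti-myc and detected with anti-pS15/HRP-TMB at 450 nm.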

cellular ATM activity = cellular ATM activity (Homo sapiens (Human), UniProt Q13315); test: Inhibition of cellular ATM activity: etoposide-stimulated KAP1 phosphorylation in U20S cells; type: cell-based; details: 100 μM etoposide, 60 min, read-out: ATM CELL IC50
Sequence of cellular ATM activity (Q13315 whole entry): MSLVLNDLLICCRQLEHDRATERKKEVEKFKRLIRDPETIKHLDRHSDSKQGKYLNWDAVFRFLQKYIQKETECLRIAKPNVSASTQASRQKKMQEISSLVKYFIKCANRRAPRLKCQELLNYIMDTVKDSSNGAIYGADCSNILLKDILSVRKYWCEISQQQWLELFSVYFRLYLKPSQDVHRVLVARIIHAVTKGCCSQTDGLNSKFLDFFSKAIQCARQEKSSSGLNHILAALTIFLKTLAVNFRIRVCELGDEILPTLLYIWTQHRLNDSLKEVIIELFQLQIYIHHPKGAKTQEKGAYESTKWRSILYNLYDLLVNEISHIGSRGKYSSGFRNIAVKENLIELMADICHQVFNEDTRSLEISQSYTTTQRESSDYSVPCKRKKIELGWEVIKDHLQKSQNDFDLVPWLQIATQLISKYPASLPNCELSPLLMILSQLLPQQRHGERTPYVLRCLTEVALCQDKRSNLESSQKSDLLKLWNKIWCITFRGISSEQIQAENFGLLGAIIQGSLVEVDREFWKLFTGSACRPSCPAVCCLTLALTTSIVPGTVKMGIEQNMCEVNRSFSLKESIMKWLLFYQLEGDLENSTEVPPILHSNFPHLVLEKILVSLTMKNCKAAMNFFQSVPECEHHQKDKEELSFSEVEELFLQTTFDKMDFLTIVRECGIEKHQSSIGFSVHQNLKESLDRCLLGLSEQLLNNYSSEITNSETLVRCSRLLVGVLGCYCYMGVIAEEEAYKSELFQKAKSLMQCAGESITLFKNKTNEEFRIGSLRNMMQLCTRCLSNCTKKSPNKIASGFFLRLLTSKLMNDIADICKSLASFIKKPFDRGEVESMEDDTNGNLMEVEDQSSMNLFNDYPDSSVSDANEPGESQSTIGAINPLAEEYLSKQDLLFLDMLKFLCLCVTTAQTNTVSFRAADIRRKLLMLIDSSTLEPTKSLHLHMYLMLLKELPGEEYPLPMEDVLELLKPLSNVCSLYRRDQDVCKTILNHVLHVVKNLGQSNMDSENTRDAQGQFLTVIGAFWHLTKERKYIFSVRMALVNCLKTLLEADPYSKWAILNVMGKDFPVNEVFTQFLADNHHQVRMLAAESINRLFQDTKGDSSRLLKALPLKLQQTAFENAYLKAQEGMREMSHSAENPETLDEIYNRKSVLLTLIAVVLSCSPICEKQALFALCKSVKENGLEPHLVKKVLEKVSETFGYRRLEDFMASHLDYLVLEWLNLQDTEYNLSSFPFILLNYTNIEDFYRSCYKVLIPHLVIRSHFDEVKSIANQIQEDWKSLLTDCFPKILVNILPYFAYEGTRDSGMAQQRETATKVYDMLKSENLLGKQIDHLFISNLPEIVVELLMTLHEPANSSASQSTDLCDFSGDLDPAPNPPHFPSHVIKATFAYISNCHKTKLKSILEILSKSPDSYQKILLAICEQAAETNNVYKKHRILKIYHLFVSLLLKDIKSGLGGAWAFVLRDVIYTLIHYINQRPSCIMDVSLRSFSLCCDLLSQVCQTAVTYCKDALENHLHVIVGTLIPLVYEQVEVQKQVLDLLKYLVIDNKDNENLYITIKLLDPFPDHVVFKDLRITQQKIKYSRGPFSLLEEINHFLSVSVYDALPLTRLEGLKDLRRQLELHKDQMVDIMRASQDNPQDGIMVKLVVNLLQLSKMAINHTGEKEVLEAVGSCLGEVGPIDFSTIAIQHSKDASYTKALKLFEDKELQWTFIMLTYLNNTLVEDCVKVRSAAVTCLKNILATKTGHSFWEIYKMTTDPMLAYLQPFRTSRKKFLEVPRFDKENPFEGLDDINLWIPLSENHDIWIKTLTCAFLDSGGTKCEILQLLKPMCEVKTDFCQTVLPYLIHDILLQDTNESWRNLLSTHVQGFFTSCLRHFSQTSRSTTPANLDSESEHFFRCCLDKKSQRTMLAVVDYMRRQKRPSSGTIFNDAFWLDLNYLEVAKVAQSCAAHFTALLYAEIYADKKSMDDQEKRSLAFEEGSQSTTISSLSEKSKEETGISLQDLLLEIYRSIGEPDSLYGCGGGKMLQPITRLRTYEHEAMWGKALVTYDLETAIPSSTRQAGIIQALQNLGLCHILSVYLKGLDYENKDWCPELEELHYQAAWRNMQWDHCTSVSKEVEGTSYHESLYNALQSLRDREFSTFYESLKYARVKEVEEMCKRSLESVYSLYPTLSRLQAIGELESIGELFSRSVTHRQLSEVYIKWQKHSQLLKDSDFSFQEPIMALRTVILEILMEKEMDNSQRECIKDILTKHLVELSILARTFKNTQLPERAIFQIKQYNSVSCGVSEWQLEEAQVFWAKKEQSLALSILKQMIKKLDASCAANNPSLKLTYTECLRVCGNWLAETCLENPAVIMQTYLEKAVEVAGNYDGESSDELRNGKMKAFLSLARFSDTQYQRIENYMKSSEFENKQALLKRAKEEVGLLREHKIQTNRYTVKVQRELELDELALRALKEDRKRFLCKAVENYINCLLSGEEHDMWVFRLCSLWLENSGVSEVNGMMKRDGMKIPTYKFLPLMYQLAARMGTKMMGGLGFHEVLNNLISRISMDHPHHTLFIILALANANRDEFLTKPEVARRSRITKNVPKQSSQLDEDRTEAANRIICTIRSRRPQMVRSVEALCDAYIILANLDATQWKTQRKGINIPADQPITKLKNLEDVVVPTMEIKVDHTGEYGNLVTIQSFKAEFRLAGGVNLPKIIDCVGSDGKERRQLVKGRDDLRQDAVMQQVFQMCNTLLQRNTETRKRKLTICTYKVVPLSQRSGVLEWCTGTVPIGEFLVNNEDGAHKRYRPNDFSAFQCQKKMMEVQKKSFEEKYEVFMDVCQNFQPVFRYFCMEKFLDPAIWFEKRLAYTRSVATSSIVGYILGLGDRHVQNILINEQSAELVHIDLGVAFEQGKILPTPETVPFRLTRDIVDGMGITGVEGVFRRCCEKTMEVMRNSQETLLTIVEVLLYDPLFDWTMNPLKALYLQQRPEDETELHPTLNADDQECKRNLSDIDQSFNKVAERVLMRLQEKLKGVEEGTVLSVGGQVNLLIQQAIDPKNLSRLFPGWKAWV

Sequence of Recombinant, full length human FLAG-tagged ATM (Q13315 whole entry): as above

Row | SMILES | IC50 [1] [nM] | IC50 (cellular ATM activity) [nM]
1 | CC1CCC[C@H](Cc2ccccc2)N(c2nc(N3CCOCC3)cc(=O)[nH]2)C1 (single isomer, unassigned) [Example 246] | 22.5 | 1070
2 | C[C@@H]1CN(c2cc(=O)[nH]c(N3CCCCC[C@@H]3Cc3ccccc3)n2)C[C@@H](C)O1 [Example 349, 2-((R)-2-benzylazepan-1-yl)-6-((2R,6R)-2,6-dimethylmorpholino)pyrimidin-4(3H)-one] | 7.5 | 345
3 | CO[C@@H]1CCN(c2nc(N3CCOCC3)cc(=O)[nH]2)[C@H]1Cc1ccccc1 [Example 257, 2-((2S,3R)-2-benzyl-3-methoxypyrrolidin-1-yl)-6-morpholinopyrimidin-4(3H)-one] | 4 | 411
4 | C[C@@H]1CCN(c2nc(N3CCOCC3)cc(=O)[nH]2)[C@H]1Cc1ccccc1 [Example 215] | 1 | 74
5 | COc1ccccc1C[C@H]1[C@H](C)CCN1c1cc(N2CCOCC2)cc(=O)[nH]1 [Example 47, 6-((2S,3R)-2-(2-methoxybenzyl)-3-methylpyrrolidin-1-yl)-4-morpholinopyridin-2(1H)-one] | 8.3 | 347
6 | COc1ccc(C[C@H]2CCCCCN2c2cc(N3CCOCC3)cc(=O)[nH]2)cc1 [Example 29, 6-[(2R)-2-[(4-methoxyphenyl)methyl]azepan-1-yl]-4-morpholino-1H-pyridin-2-one] | 32.5 | 371
7 | COc1ccccc1C[C@H]1[C@H]2C[C@H]2CN1c1cc(N2CCOCC2)cc(=O)[nH]1 [Example 128] | 14.7 | 711
8 | COc1ccccc1C[C@H]1CCCN1c1cc(N2CCOCC2)cc(=O)[nH]1 [Example 7, (R)-6-(2-(2-methoxybenzyl)pyrrolidin-1-yl)-4-morpholinopyridin-2(1H)-one] | 44.6 | 1020
9 | O=c1cc(N2CCOCC2)nc(N2CC[C@@H](O)[C@@H]2Cc2ccccc2)[nH]1 [Example 258, 2-((2S,3R)-2-benzyl-3-hydroxypyrrolidin-1-yl)-6-morpholinopyrimidin-4(3H)-one] | 6.8 | 881
10 | O=c1cc(N2CCOCC2)cc(N2CCCCC[C@@H]2Cc2cccc3c2OCO3)[nH]1 [Example 70, (R)-6-(2-(benzo[d][1,3]dioxol-4-ylmethyl)azepan-1-yl)-4-morpholinopyridin-2(1H)-one] | 2.4 | 274
11 | O=c1cc(N2CCOCC2)cc(N2C[C@H]3C[C@H]3[C@@H]2Cc2ccccc2)[nH]1 [Example 43, 6-((1R,2S,5S)-2-benzyl-3-azabicyclo[3.1.0]hexan-3-yl)-4-morpholinopyridin-2(1H)-one] | 9.6 | 293
12 | COc1ccccc1C[C@H]1CCCCCN1c1cc(N2CCOCC2)cc(=O)[nH]1 [Example 27, (R)-6-(2-(2-methoxybenzyl)azepan-1-yl)-4-morpholinopyridin-2(1H)-one] | 16.6 | 501
13 | C[C@@H]1CCCN(c2cc(N3CCOCC3)cc(=O)[nH]2)[C@@H](Cc2ccccc2)C1 [Example 84, 6-((2R,4R)-2-benzyl-4-methylazepan-1-yl)-4-morpholinopyridin-2(1H)-one] | 47.6 | 864
14 | O=c1cc(N2CCOCC2)cc(N2C[C@@H]3CCC[C@@H]3[C@@H]2Cc2ccccc2)[nH]1 [Example 124] | 3.3 | 248
15 | C[C@@H]1CN(c2cc(=O)[nH]c(N3CCCCC[C@@H]3Cc3cccc(F)c3F)n2)CCO1 [Example 300, 2-((R)-2-(2,3-difluorobenzyl)azepan-1-yl)-6-((R)-2-methylmorpholino)pyrimidin-4(3H)-one] | 93.7 | 586
16 | C[C@H]1CCCN(c2nc(N3CCOCC3)cc(=O)[nH]2)[C@@H](Cc2ccc(F)cc2)C1 [Example 235] | 5.3 | 436
17 | COc1cccc(C[C@H]2CCCN2c2cc(N3CCOCC3)cc(=O)[nH]2)c1 [Example 22, (R)-6-(2-(3-methoxybenzyl)pyrrolidin-1-yl)-4-morpholinopyridin-2(1H)-one] | 55.3 | 2680
18 | O=c1cc(N2CCOCC2)nc(N2CCCC2Cn2cnc3ccccc32)[nH]1 (centres unmarked) [Example 192] | 30 | 1340
19 | COc1ccccc1C[C@H]1[C@@H](F)CCN1c1nc(N2CCO[C@H](C)C2)cc(=O)[nH]1 [Example 324] | 5.4 | 1680
20 | CC1OCCN(c2cc(=O)[nH]c(N3CCCC3Cc3ccccc3)n2)C1C (single isomer, unassigned) [Example 352, 2-(2-benzylpyrrolidin-1-yl)-6-(2,3-dimethylmorpholino)pyrimidin-4(3H)-one] | 24 | 1530
21 | C[C@@H]1CN(c2cc(=O)[nH]c(N3CCCCC[C@@H]3Cc3cccc4c3OCC4)n2)CCO1 [Example 305, 2-((R)-2-((2,3-dihydrobenzofuran-7-yl)methyl)azepan-1-yl)-6-((R)-2-methylmorpholino)pyrimidin-4(3H)-one] | 39 | 569
22 | O=c1cc(N2CCOCC2)cc(N2CCC[C@@H]2Cc2ccccc2)[nH]1 [Example 1, (R)-6-(2-benzylpyrrolidin-1-yl)-4-morpholinopyridin-2(1H)-one] | 36.2 | 3380
